Assay results as given in patent US9776972B2, “Pyrazole derivatives as arginine methyltransferase inhibitors and uses thereof” (priority 2013, dated 2017).
Structures can show the parent of a compound that is named as a salt. Where two headings read alike, the source gives them in different places.

How the values were obtained:
[1] = tested on: mono-methyl arginine in RKO cells; assay: RKO Methylation Assay, In Cell Western (ICW) for mono-methyl arginine and DNA content; type: cell-based; conditions: for EC30: Homo sapiens, RKO, 72 h; for EC30 (In Cell Western data): class symbols
Method in brief: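 After fixation, mono-methyl arginine and DNA (DRAQ5) were measured by infrared In-Cell Western imaging at 700/800 nm in RKO cells exposed to compounds for 72 hours. Percent activation used DMSO wells as minimum and 20 μM reference compound as maximum; EC30 curves fitted on triplicate wells.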

human PRMT6 = molecular target: T1, human PRMT6 (Homo sapiens, UniProt Q96LA8); assay: PRMT6 Biochemical Assay (3H-SAM Flashplate, peptide substrate)
T1 construct: Flag-PRMT6-His; made in house; host or cells: HEK 293F cells (BacMam baculovirus)
Method in brief: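 Methylation of a biotin-tagged H4 (36-50) peptide by ³H-SAM was quantified by streptavidin Flashplate capture and scintillation counts (dpm/cpm). Before SAM/peptide addition, Flag-PRMT6-His was preincubated with compound for 30 min at room temperature in Bicine buffer, pH 7.6.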

[2] = RKO cells, 72 hours, mono-methyl arginine, percent activation, single experiment or average of multiple experiments, read-out: EC30 (In Cell Western data, Numerical)
[3] = Biochemical IC50 PRMT6, single experiment or average of multiple experiments
[4] = read-out: EC30 (In Cell Western data, Numerical, μM)
[5] = RKO cells, 72 hours, mono-methyl arginine, percent activation
[6] = single experiment or average of multiple experiments, read-out: Biochemical IC50 PRMT6

T1 sequence (Q96LA8 with tags, fused parts or gaps): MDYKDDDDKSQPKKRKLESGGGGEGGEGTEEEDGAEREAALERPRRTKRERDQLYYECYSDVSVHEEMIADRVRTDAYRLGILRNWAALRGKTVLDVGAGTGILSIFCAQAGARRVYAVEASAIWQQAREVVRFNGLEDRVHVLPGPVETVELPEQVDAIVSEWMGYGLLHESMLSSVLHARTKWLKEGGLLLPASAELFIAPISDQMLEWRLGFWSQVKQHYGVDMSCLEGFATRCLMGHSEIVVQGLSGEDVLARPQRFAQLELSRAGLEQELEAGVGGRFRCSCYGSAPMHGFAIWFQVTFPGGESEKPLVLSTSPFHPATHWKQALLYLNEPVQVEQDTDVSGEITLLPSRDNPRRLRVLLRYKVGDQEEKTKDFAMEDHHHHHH

Compound	IC50 (human PRMT6; [3])	EC30 [1, 2]	other results
CNCCN(C)Cc1cn(C)nc1-c1ccc(OC(C)C)cc1 [Compound 243, N^1-((3-(4-isopropoxyphenyl)-1-methyl-1H-pyrazol-4-yl)methyl)-N1,N2-dimethylethane-1,2-diamine]	286 nM	0.809 µM	–
CNCCN(C)Cc1c[nH]nc1-c1cc(C(C)C)cc(C(C)C)c1 [Compound 229, N^1-((3-(3,5-diisopropylphenyl)-1H-pyrazol-4-yl)methyl)-N^1,N^2-dimethylethane-1,2-diamine]	201 nM	8.71 µM	–
CCn1ncc(CN(C)CCNC)c1-c1ccc(OC(C)C)cc1 [Compound 252]	102 nM	–	EC30 [1, 4]: 1.82 µM
CNCCN(C)Cc1n[nH]cc1-c1cc(CC(C)C)cc(CC(C)C)c1 [Compound 271]	864 nM	> 20 µM	–
CCCN(CCN)Cc1c[nH]nc1-c1ccc(F)cc1 [Compound 63]	1150 nM	> 20 µM	–
CNCCN(C)Cc1c[nH]nc1-c1ccccc1-c1ccccc1 [Compound 46]	–	–	EC30 (In Cell Western data) [1, 5]: C (“C” indicates an EC30 ≧ 12.01 μM); IC50 (human PRMT6; [6]): 3220 nM
CNCCN(C)Cc1cn(CC(=O)O)nc1-c1ccc(OC(C)C)cc1 [Compound 250]	4260 nM	–	EC30 [1, 4]: > 20 µM
CNCCN(C)Cc1cnn(C2CCCC2)c1-c1ccc(OC(C)C)cc1 [Compound 255]	75.1 nM	–	EC30 [1, 4]: 2.66 µM
CNCCN(C)Cc1cn(CC(=O)OC)nc1-c1ccc(OC(C)C)cc1 [Compound 248]	831 nM	> 20 µM	–
CNCCN(C)Cc1cn(Cc2cccnc2)nc1-c1ccc(OC(C)C)cc1 [Compound 246]	318 nM	–	EC30 [1, 4]: 1.08 µM
CC(C)Cc1cccc(-c2n[nH]cc2CN(C)CCN)c1 [Compound 235]	176 nM	1.56 µM	–
CNCCN(C)Cc1c[nH]nc1-c1cc(CC(C)C)cc(CC(C)C)c1 [Compound 281]	241 nM	3.52 µM	–
CNCCN(C)Cc1cnn(CC(=O)OC)c1-c1ccc(OC(C)C)cc1 [Compound 249]	428 nM	–	EC30 [1, 4]: 9.53 µM
CNCCN(C)Cc1c[nH]nc1-c1ccccc1C(F)(F)F [Compound 38]	–	–	EC30 (In Cell Western data) [1, 5]: C (“C” indicates an EC30 ≧ 12.01 μM); IC50 (human PRMT6; [6]): 352 nM
CNCCN(C)Cc1c[nH]nc1-c1ccc(C(=O)c2ccccc2)cc1 [Compound 45]	–	–	EC30 (In Cell Western data) [1, 5]: A (“A” indicates an EC30 ≦ 3.00 μM); EC30 (In Cell Western data, Numerical, μM) ([1]; RKO cells, 72 hours, mono-methyl arginine, percent activation, single experiment or average of multiple experiments): 0.454 µM; IC50 (human PRMT6; [6]): 7.54 nM
CNCCN(C)Cc1n[nH]cc1-c1cc(C(C)C)cc(C(C)C)c1 [Compound 242]	> 1000 nM	> 20 µM	–
CNCCN(C)Cc1cn(C2CCC2)nc1-c1ccc(OC(C)C)cc1 [Compound 254, N1-((1-cyclobutyl-3-(4-isopropoxyphenyl)-1H-pyrazol-4-yl)methyl)-N1,N2-dimethylethane-1,2-diamine hydrochloride]	201 nM	–	EC30 [1, 4]: 2.24 µM
CNCCN(C)Cc1cn(CC(N)=O)nc1-c1ccc(OC(C)C)cc1 [Compound 251]	2370 nM	18.7 µM	–
CNCCN(C)Cc1c(-c2ccc(OCCCOC)cc2)cnn1C [Compound 276]	> 1000 nM	> 20 µM	–
CNCCN(C)Cc1c[nH]nc1-c1c(OC)cccc1OC [Compound 56]	–	–	EC30 (In Cell Western data) [1, 5]: C (“C” indicates an EC30 ≧ 12.01 μM); IC50 (human PRMT6; [6]): 1900 nM
CNCCN(C)Cc1cn(Cc2ccccn2)nc1-c1ccc(OC(C)C)cc1 [Compound 247]	805 nM	8.26 µM	–
C=C(C)C(=O)Nc1cccc(-c2[nH]ncc2CN(C)CCNC)c1 [Compound 257]	213 nM	> 20 µM	–
CNCCN(C)Cc1cn(C2CCCCC2)nc1-c1ccc(OC(C)C)cc1 [Compound 256]	921 nM	> 20 µM	–
CNCCN(C)Cc1cn(Cc2ccncc2)nc1-c1ccc(OC(C)C)cc1 [Compound 245]	224 nM	0.627 µM	–

Further lines, with some results ahead:

IC50 (human PRMT6; [3])	Compound	EC30 [1, 2]	other results
1.56 nM	CNCCN(C)Cc1n[nH]cc1-c1ccc(Oc2cccc(C#N)c2)cc1 [Compound 267]	0.694 µM	–
1.01 nM	CNCCN(C)Cc1n[nH]cc1-c1ccc(Oc2cccc(OC)c2)cc1 [Compound 239]	1.28 µM	–
9.1 nM	CNCCN(C)Cc1c[nH]nc1-c1ccc(CO)cc1 [Compound 28]	10.2 µM	–
173 nM	C=CC(=O)Nc1cccc(-c2[nH]ncc2CN(C)CCNC)c1 [Compound 258]	> 20 µM	–
7.87 nM	CCN(CCN)Cc1c[nH]nc1-c1ccc(F)cc1 [Compound 62]	> 20 µM	–
2.13 nM	CNCCN(C)Cc1c[nH]nc1-c1ccc(Oc2ccccc2F)cc1 [Compound 237]	0.114 µM	–
1.46 nM	CNCCN(C)Cc1c[nH]nc1-c1ccc(Oc2cccc(C(C)C)c2)cc1 [Compound 262]	1.23 µM	–
34.1 nM	CNCCN(C)Cc1n[nH]cc1-c1ccc(Oc2ccccc2)c(C(=O)N(C)C)c1 [Compound 241]	10.4 µM	–
4.75 nM	CNCCN(C)Cc1c[nH]nc1-c1cc(Cl)c(OCC2CC2)c(Cl)c1 [Compound 282]	0.383 µM	–
7.57 nM	CNCCN(C)Cc1c[nH]nc1-c1ccc(Oc2ccccc2C(=O)NC)cc1 [Compound 274]	3.04 µM	–
20.9 nM	CNCCN(C)Cc1n[nH]c(C)c1-c1ccc(OC(C)C)cc1 [Compound 275]	0.122 µM	–
0.8 nM	CN(CCN)Cc1c[nH]nc1-c1ccc(Oc2ccccc2F)cc1 [Compound 259]	0.532 µM	–
2.44 nM	CNCCN(C)Cc1c[nH]nc1-c1ccc(Oc2cccc(C#N)c2)cc1 [Compound 261]	0.327 µM	–
2 nM	CNCCN(C)Cc1n[nH]cc1-c1ccc(Oc2cccc(C(=O)NC)c2)cc1 [Compound 268]	3.69 µM	–
15.7 nM	CNCCN(C)Cc1c[nH]nc1-c1cc(Cl)c(OC(C)C)c(Cl)c1 [Compound 265, N^1-((3-(3,5-dichloro-4-isopropoxyphenyl)-1H-pyrazol-4-yl)methyl)-N^1,N^2-dimethylethane-1,2-diamine]	0.503 µM	–
10.2 nM	CC(C)Cc1cc(-c2n[nH]cc2CN(C)CCN)ccc1F [Compound 280]	1.72 µM	–
14.7 nM	CNCCN(C)Cc1c[nH]nc1-c1ccc(OCCCO)cc1 [Compound 236]	0.852 µM	–
1.66 nM	CNCCN(C)Cc1n[nH]cc1-c1ccc(Oc2cccc(C(C)C)c2)cc1 [Compound 277]	> 20 µM	–
18.2 nM	CNCCN(C)Cc1c[nH]nc1-c1ccc(Oc2ccccc2)c(C(=O)N(C)C)c1 [Compound 233]	17.3 µM	–
2.97 nM	CNCCN(C)Cc1c[nH]nc1-c1ccc(Oc2cccc(F)c2)cc1 [Compound 231]	0.23 µM	–
1.87 nM	CNCCN(C)Cc1n[nH]cc1-c1ccc(Oc2ccccc2F)cc1 [Compound 279, N^1-((4-(4-(2-fluorophenoxy)phenyl)-1H-pyrazol-3-yl)methyl)-N^1,N^2-dimethylethane-1,2-diamine]	0.637 µM	–
33 nM	CNCCN(C)Cc1nn(C)cc1-c1ccc(OCCCOC)cc1 [Compound 266]	> 20 µM	–
16.6 nM	CNCCN(C)Cc1c[nH]nc1-c1ccc(Oc2ccccc2)c(C(=O)NC)c1 [Compound 232]	7.14 µM	–
